Laboratory results from patent US6673821B2, “Nitrogen heterocycle inhibitors of aspartyl protease” (Enanta Pharmaceuticals, Inc., priority 2001, dated 2004).

Target: HIV-1 protease (Human immunodeficiency virus type 1 group M subtype B, UniProt P04585)
Experiment: Biological assay for inhibition of microbial expressed viral protease (HIV-1 protease)
Assay type: biochemical
Source text: Insofar as compounds of the invention are able to inhibit the replication of the HIV virus in human T-cells and furthermore, may be delivered orally to mammals, they are of evident clinical utility for the treatment of HIV infection. These tests are predictive of the compounds ability to inhibit HIV protease in vivo. We have measured the inhibition constants of each compound against HIV-1 protease using essentially the method described by M. W. Pennington et al., Peptides 1990, Gimet, E. and D. Andrew, Eds., Escom; Leiden, Netherlands (1990).
Biological Assay for Inhibition of Microbial Expressed Viral Protease
The inhibition constants against HIV-1 protease were measured using the method described by M. V. Toth and G. R. Marshall, Int. J. Peptide protein Res., 1990, 544. The method described M. W. Pennington et al., Peptides 1990, Gimet, E. and D. Andrew, Eds., Escom; Leiden, Netherlands (1990) may also be used. Inhibition is measured as IC50 in μM. The person of skill would accept these tests as predictive of the compounds' utility in vivo to treat HIV infected patients.

SMILES | IC50
CC(C)(C)OC(=O)NC(Cc1ccccc1)C(O)C1SCCN1S(=O)(=O)c1cccc2cccnc12 (stereo not shown) [EP-001153] | 5 to 20 µM
CC(C)(C)OC(=O)NC(Cc1ccccc1)C(O)C1SCCN1S(=O)(=O)c1ccc(OC(F)(F)F)cc1 (stereo not shown) [EP-001155] | 5 to 20 µM
CC(C)(C)OC(=O)NC(Cc1ccccc1)C(O)C1SCCN1S(=O)(=O)c1ccccc1 (stereo not shown) [EP-001156] | < 5 µM
CC(C)(C)OC(=O)NC(Cc1ccccc1)C(O)C1SCCN1S(=O)(=O)c1ccc([N+](=O)[O-])cc1 (stereo not shown) [EP-001157] | < 5 µM
CC(C)c1ccc(S(=O)(=O)N2CCSC2C(O)C(Cc2ccccc2)NC(=O)OC(C)(C)C)cc1 (stereo not shown) [EP-001159] | 5 to 20 µM
Cc1c(O)cccc1C(=O)NC(Cc1ccccc1)C(O)C1SCCN1S(=O)(=O)c1ccc(F)cc1 (stereo not shown) [EP-001161] | < 5 µM
Cc1cccc(C)c1OCC(=O)NC(Cc1ccccc1)C(O)C1SCCN1S(=O)(=O)c1ccc(F)cc1 (stereo not shown) [EP-001162] | < 5 µM
O=C(COc1ccccc1)NC(Cc1ccccc1)C(O)C1SCCN1S(=O)(=O)c1ccc(F)cc1 (stereo not shown) [EP-001163] | > 20 µM
CC(Oc1ccccc1)C(=O)NC(Cc1ccccc1)C(O)C1SCCN1S(=O)(=O)c1ccc(F)cc1 (stereo not shown) [EP-001164] | > 20 µM
O=C(COc1cccc2ccccc12)NC(Cc1ccccc1)C(O)C1SCCN1S(=O)(=O)c1ccc(F)cc1 (stereo not shown) [EP-001165] | > 20 µM
O=C(COc1ccc2ccccc2c1)NC(Cc1ccccc1)C(O)C1SCCN1S(=O)(=O)c1ccc(F)cc1 (stereo not shown) [EP-001166] | > 20 µM
O=C(NC(Cc1ccccc1)C(O)C1SCCN1S(=O)(=O)c1ccc(F)cc1)OC1CCOC1 (stereo not shown) [EP-001169] | < 5 µM
O=C(Cc1ccccc1)NC(Cc1ccccc1)C(O)C1SCCN1S(=O)(=O)c1ccc(F)cc1 (stereo not shown) [EP-001171] | > 20 µM
CC(C)(C)OC(=O)NC(Cc1ccccc1)C(O)C1SCCN1S(=O)(=O)c1ccc(N)cc1 (stereo not shown) [EP-001172] | < 5 µM
COCCOC(=O)NC(Cc1ccccc1)C(O)C1SCCN1S(=O)(=O)c1ccc(F)cc1 (stereo not shown) [EP-001184] | < 5 µM
Cc1c(O)cccc1C(=O)NC(Cc1ccccc1)C(O)C1SCCN1S(=O)(=O)c1ccc(N)cc1 (stereo not shown) [EP-001195] | < 5 µM
